Experimental data taken from patent US20240342190A1, “METHODS FOR REDUCING ISCHEMIA-REPERFUSION INJURIES” (BioMimetix JV, LLC, priority 2023, published 2024).
“Also recorded” adds a separate entry of the source.

Assays:
blood brain barrier = assay: Experiment 7: blood brain barrier permeability after intracarotid infusion (Evans blue content); conditions: non-stroke rats, vs vehicle
Method: 30 μg/kg of BMX-001 (n=4), or same amount of saline (n=4) or mannitol (n=4) was given to normal male Wistar rats through the carotid artery. The rats received 100 μl 2% Evans blue intravenous infusion 30 min later and then intracardially perfused using 100 ml normal saline at 30 min following infusion. Brains were harvested and the Evans blue content was measured spectrophotometrically.

[1] = test system: animal model of ischemic stroke; conditions: given 6 hours after reperfusion; cited from earlier work

Compound	Evans blue content in brain / blood brain barrier permeability, in words (blood brain barrier)	Protection in ischemic stroke, in words [1]
OC[C@@H](O)[C@@H](O)[C@H](O)[C@H](O)CO [Mannitol, reference compound]	significant increase of Evans blue content; also recorded: did increase the blood brain barrier (BBB) permeability	–
CC[n+]1ccccc1-c1c2nc(c(-c3cccc[n+]3CC)c3ccc([n-]3)c(-c3cccc[n+]3CC)c3nc(c(-c4cccc[n+]4CC)c4ccc1[n-]4)C=C3)C=C2.[Mn+3] [MnTE-2-PyP^5+]	–	provided protection
